# Assay results as given in patent US9802960B2 (MILLENNIUM PHARMACEUTICALS, INC., priority 2014, dated 2017).
# Biological target: Human VPS34 (Homo sapiens (Human), UniProt Q8NEB9)
# Assay: Human VPS34 enzyme assay (Adapta TR-FRET)
# Assay type: biochemical
# Details: IC50 range class
# Chain of Human VPS34 (Q8NEB9 whole entry): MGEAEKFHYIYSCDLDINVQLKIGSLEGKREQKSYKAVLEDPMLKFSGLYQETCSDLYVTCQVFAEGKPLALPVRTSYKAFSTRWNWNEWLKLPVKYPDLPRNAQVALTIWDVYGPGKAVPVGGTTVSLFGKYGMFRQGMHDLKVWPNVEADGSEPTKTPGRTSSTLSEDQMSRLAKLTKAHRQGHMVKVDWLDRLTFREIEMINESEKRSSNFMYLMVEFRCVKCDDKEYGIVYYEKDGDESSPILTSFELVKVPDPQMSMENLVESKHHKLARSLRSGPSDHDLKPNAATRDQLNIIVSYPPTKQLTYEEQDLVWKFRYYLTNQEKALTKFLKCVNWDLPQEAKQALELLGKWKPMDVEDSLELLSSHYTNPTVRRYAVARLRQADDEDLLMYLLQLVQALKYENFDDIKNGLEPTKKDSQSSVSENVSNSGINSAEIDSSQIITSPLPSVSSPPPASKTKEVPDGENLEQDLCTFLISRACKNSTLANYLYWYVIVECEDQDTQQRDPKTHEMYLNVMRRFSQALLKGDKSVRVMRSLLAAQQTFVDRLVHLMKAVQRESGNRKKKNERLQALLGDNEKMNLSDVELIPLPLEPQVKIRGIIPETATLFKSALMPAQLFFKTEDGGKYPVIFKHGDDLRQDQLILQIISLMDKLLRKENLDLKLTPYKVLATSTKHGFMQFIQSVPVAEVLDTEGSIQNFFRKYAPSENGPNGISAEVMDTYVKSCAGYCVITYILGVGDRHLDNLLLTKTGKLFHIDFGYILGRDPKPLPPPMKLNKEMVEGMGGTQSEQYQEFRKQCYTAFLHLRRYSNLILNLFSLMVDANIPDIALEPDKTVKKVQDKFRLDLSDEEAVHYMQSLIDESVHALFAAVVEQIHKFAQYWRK
row,IC50,SMILES
1,< 10 nM,"CC(=O)Nc1cc(-c2cnc(N)c(S(=O)(=O)NC(C)C)c2)ccn1 [Compound I-7, N-[6-amino-5-(isopropylsulfamoyl)-3,4′-bipyridin-2′-yl]acetamide]"
2,50 to 100 nM,"CC(=O)Nc1cc(-c2cnc(N)c(S(=O)(=O)NCc3cccnc3)c2)ccn1 [Compound I-19, N-{6-amino-5-[(pyridin-3-ylmethyl)sulfamoyl]-3,4′-bipyridin-2′-yl}acetamide]"

# Same assay, conditions: compound concentration 1.11 μM; read-out: Percent Inhibition
row,inhibition at 1.11 µM,SMILES
1,> 99%,"Cc1ncc(-c2ccnc(NC(=O)C3CC3(F)F)c2)cc1NS(=O)(=O)c1ccc(F)cc1F (racemic) [Compound I-16, (rac)-N-(5-{[(2,4-difluorophenyl)sulfonyl]amino}-6-methyl-3,4′-bipyridin-2′-yl)-2,2-difluorocyclopropanecarboxamide]"
2,> 99%,"CC(=O)Nc1cc(-c2cnc(C)c(N3CC(N(C)C)CS3(=O)=O)c2)ccn1 (single isomer, unassigned) [Compound I-496, N-(5-(4-(dimethylamino)-1,1-dioxidoisothiazolidin-2-yl)-6-methyl-[3,4′-bipyridin]-2′-yl)acetamide]"
3,> 99%,"CC(=O)Nc1cc(-c2cnc(C)c(N3CC(N(C)C)CS3(=O)=O)c2)ccn1 (single isomer, unassigned) [Compound I-497, (R or S)—N-(5-(4-(dimethylamino)-1,1-dioxidoisothiazolidin-2-yl)-6-methyl-[3,4′-bipyridin]-2′-yl)acetamide]"
4,> 99%,"CC(=O)Nc1cc(-c2cnc(C)c(NS(=O)(=O)c3ccc(C(F)(F)F)nc3)c2)ccn1 [Compound I-1, N-[6-methyl-5-({[6-(trifluoromethyl)pyridin-3-yl]sulfonyl}amino)-3,4′-bipyridin-2′-yl]acetamide]"
5,> 99%,"CC(=O)Nc1cc(-c2cnc3cnn(S(=O)(=O)C4CC4)c3c2)ccn1 [Compound I-2, N-{4-[1-(cyclopropylsulfonyl)-1H-pyrazolo[4,3-b]pyridin-6-yl]pyridin-2-yl}acetamide]"
6,87%,CC(=O)Nc1cc(-c2cnc(N)c(S(=O)(=O)Cc3ccc4ccccc4c3)c2)ccn1 [Compound I-3]
7,> 99%,"Cc1cnc(NC(=O)C2CC2)cc1-c1cnc(C)c(NS(=O)(=O)c2ccc(F)cc2F)c1 [Compound I-4, N-(5-{[(2,4-difluorophenyl)sulfonyl]amino}-5′,6-dimethyl-3,4′-bipyridin-2′-yl)cyclopropanecarboxamide]"
8,> 99%,"CC(=O)Nc1cc(-c2cnc(N)c(S(=O)(=O)Cc3ccccc3)c2)ccn1 [Compound I-6, N-[6-amino-5-(benzylsulfonyl)-3,4′-bipyridin-2′-yl]acetamide]"
9,> 99%,"CC(=O)Nc1cc(-c2cnc(N)c(S(=O)(=O)NC(C)C)c2)ccn1 [Compound I-7, N-[6-amino-5-(isopropylsulfamoyl)-3,4′-bipyridin-2′-yl]acetamide]"
10,> 99%,"CC(=O)Nc1cc(-c2cncc(C(=O)C3CC3)c2)ccn1 [Compound I-8, N-[5-(cyclopropylcarbonyl)-3,4′-bipyridin-2′-yl]acetamide]"
11,> 99%,"CC(=O)Nc1cc(-c2cncc(S(=O)(=O)N3CCC(F)(F)CC3)c2)ccn1 [Compound I-9, N-{5-[(4,4-difluoropiperidin-1-yl)sulfonyl]-3,4′-bipyridin-2′-yl}acetamide]"
12,> 99%,"CC(=O)Nc1cc(-c2cnc(N)c(C(=O)N3CCCCC3)c2)ccn1 [Compound I-10, N-[6-amino-5-(piperidin-1-ylcarbonyl)-3,4′-bipyridin-2′-yl]acetamide]"
13,> 99%,"CC(=O)Nc1cc(-c2cnc(N)c(S(=O)(=O)NC34CC(C3)C4)c2)ccn1 [Compound I-11, N-[6-amino-5-(bicyclo[1.1.1]pent-1-ylsulfamoyl)-3,4′-bipyridin-2′-yl]acetamide]"
14,> 99%,"CC(=O)Nc1cc(-c2cncc(NS(=O)(=O)c3ccc(F)cc3F)c2)ccn1 [Compound I-12, N-(5-{[(2,4-difluorophenyl)sulfonyl]amino}-3,4′-bipyridin-2′-yl)acetamide]"
15,81%,"CC(=O)Nc1cc(-c2cncc(NC(=O)c3ccccc3)c2)ccn1 [Compound I-13, N-(2′-acetamido-3,4′-bipyridin-5-yl)benzamide]"
16,> 99%,"CC(=O)Nc1cc(-c2cnc(N)c(C(=O)NCC3CC3)c2)ccn1 [Compound I-14, 2′-acetamido-6-amino-N-(cyclopropylmethyl)-3,4′-bipyridine-5-carboxamide]"
17,> 99%,"CC(=O)Nc1cc(-c2cnc(N)c(C(=O)N3CCCC3)c2)ccn1 [Compound I-15, N-[6-amino-5-(pyrrolidin-1-ylcarbonyl)-3,4′-bipyridin-2′-yl]acetamide]"
18,> 99%,"CC(=O)Nc1cc(-c2cnc3cc[nH]c3c2)ccn1 [Compound I-17, N-[4-(1H-pyrrolo[3,2-b]pyridin-6-yl)pyridin-2-yl]acetamide]"
19,> 99%,"CC(=O)Nc1cc(-c2cnc(C)c(NS(=O)(=O)c3cn(C)nc3C(F)(F)F)c2)ccn1 [Compound I-18, N-[6-methyl-5-({[1-methyl-3-(trifluoromethyl)-1H-pyrazol-4-yl]sulfonyl}amino)-3,4′-bipyridin-2′-yl]acetamide]"
20,> 99%,"CC(=O)Nc1cc(-c2cnc(N)c(S(=O)(=O)NCc3cccnc3)c2)ccn1 [Compound I-19, N-{6-amino-5-[(pyridin-3-ylmethyl)sulfamoyl]-3,4′-bipyridin-2′-yl}acetamide]"
21,> 99%,"CC(=O)Nc1cc(-c2cncc(N(C)S(C)(=O)=O)c2)ccn1 [Compound I-20, N-{5-[methyl(methylsulfonyl)amino]-3,4′-bipyridin-2′-yl}acetamide]"

row,inhibition at 1.11 µM,SMILES
1,> 99%,"CC(=O)Nc1cc(-c2cnc3c(c2)S(=O)(=O)N(C)CN3)ccn1 [Compound I-21, N-[4-(2-methyl-1,1-dioxido-3,4-dihydro-2H-pyrido[2,3-e][1,2,4]thiadiazin-7-yl)pyridin-2-yl]acetamide]"
2,> 99%,"CNc1ncc(-c2ccnc(NC(C)=O)c2)cc1C(=O)N(C)C [Compound I-22, 2′-acetamido-N,N-dimethyl-6-(methylamino)-3,4′-bipyridine-5-carboxamide]"
3,> 99%,"CC(=O)Nc1cc(-c2cnc3ccn(S(=O)(=O)c4ccccc4)c3c2)ccn1 [Compound I-23, N-{4-[1-(phenylsulfonyl)-1H-pyrrolo[3,2-b]pyridin-6-yl]pyridin-2-yl}acetamide]"
4,> 99%,"CC(=O)Nc1cc(-c2cnc(N)c(S(=O)(=O)N3CCOCC3)c2)ccn1 [Compound I-24, N-[6-amino-5-(morpholin-4-ylsulfonyl)-3,4′-bipyridin-2′-yl]acetamide]"
5,> 99%,"CC(=O)Nc1cc(-c2cnc(N(C)C)c(NS(=O)(=O)c3ccc(F)cc3F)c2)ccn1 [Compound I-25, N-[5-{[(2,4-diflurophenyl)sulfonyl]amino}-6-(dimethylamino)-3,4′-bipyridin-2′-yl]acetamide]"
6,> 99%,"CCN(c1cc(-c2ccnc(NC(C)=O)c2)cnc1C)S(=O)(=O)C1CC1 [Compound I-26, N-{5-[(cyclopropylsulfonyl)(ethyl)amino]-6-methyl-3,4′-bipyridin-2′-yl}acetamide]"
7,> 99%,"CCN(CC)C(=O)c1cc(-c2ccnc(NC(C)=O)c2)cnc1N [Compound I-27, 2′-acetamido-6-amino-N,N-diethyl-3,4′-bipyridine-5-carboxamide]"
8,> 99%,"CC(=O)Nc1cc(-c2cnc(C)c(NS(=O)(=O)c3cc(C)ccc3F)c2)ccn1 [Compound I-28, N-(5-{[(2-fluoro-5-methylphenyl)sulfonyl]amino}-6-methyl-3,4′-bipyridin-2′-yl)acetamide]"
9,> 99%,"CC(=O)Nc1cc(-c2cnc3c(c2)N(CC2CC2)S(=O)(=O)N3)ccn1 [Compound I-29, N-{4-[1-(cyclopropylmethyl)-2,2-dioxido-1,3-dihydro[1,2,5]thiadiazolo[3,4-b]pyridin-6-yl]pyridin-2-yl}acetamide]"
10,> 99%,"CC(=O)Nc1cc(-c2cnc(C)c(NS(=O)(=O)c3ccc(Cl)cc3Cl)c2)ccn1 [Compound I-30, N-(5-{[(2,4-dichlorophenyl)sulfonyl]amino}-6-methyl-3,4′-bipyridin-2′-yl)acetamide]"
11,> 99%,"CC(=O)Nc1cc(-c2cnc(C)c(NS(=O)(=O)N(C)C)c2)ccn1 [Compound I-32, N-{5-[(dimethylsulfamoyl)amino]-6-methyl-3,4′-bipyridin-2′-yl}acetamide]"
12,> 99%,"CC(=O)Nc1cc(-c2cnc3ccn(S(C)(=O)=O)c3c2)ccn1 [Compound I-33, N-{4-[1-(methylsulfonyl)-1H-pyrrolo[3,2-b]pyridin-6-yl]pyridin-2-yl}acetamide]"
13,> 99%,"COC(=O)Nc1cc(-c2cnc(N)c(S(=O)(=O)C(C)C)c2)ccn1 [Compound I-34, methyl[6-amino-5-(isopropylsulfonyl)-3,4′-bipyridin-2′-yl]carbamate]"
14,> 99%,"CC(=O)Nc1cc(-c2cnc(N)c(NCC3CC3)c2)ccn1 [Compound I-35, N-{6-amino-5-[(cyclopropylmethyl)amino]-3,4′-bipyridin-2′-yl}acetamide]"
15,> 99%,"COC(=O)Nc1cc(-c2cnc(N)c(S(=O)(=O)N3CCCC3)c2)ccn1 [Compound I-36, methyl[6-amino-5-(pyrrolidin-1-ylsulfonyl)-3,4′-bipyridin-2′-yl]carbamate]"
16,> 99%,"CC(=O)Nc1cc(-c2cnc(N)c(S(=O)(=O)N(C)c3ccccc3)c2)ccn1 [Compound I-37, N-{6-amino-5-[methyl(phenyl)sulfamoyl]-3,4′-bipyridin-2′-yl}acetamide]"
17,> 99%,"COC(=O)Nc1cc(-c2cnc3[nH]ncc3c2)ccn1 [Compound I-38, Methyl [4-(1H-pyrazolo[3,4-b]pyridin-5-yl)pyridin-2-yl]carbamate]"
18,> 99%,"COc1ncc(-c2ccnc(NC(C)=O)c2)cc1S(=O)(=O)Nc1ccccc1 [Compound I-39, N-[6-methoxy-5-(phenylsulfamoyl)-3,4′-bipyridin-2′-yl]acetamide]"
19,> 99%,"CC(=O)Nc1cc(-c2cnc3[nH]cc(S(=O)(=O)N(C)C)c3c2)ccn1 [Compound I-40, N-{4-[3-(dimethylsulfamoyl)-1H-pyrrolo[2,3-b]pyridin-5-yl]pyridin-2-yl}acetamide]"
20,> 99%,"CC(=O)Nc1cc(-c2cnc(C)c(NS(=O)(=O)c3ccc(F)cc3F)c2)ccn1 [Compound I-41, N-(5-{[(2,4-difluorophenyl)sulfonyl]amino}-6-methyl-3,4′-bipyridin-2′-yl)acetamide]"
